Measured values: paper PMC4298654, “In vivo formation of N-acyl-fumonisin B1” (Mycotoxin Research, 2014)

Assay: In vivo formation of NAFB1 and NAHFB1 in rat kidney and liver (HPLC-ESI-MS/MS)
Set-up: N-acyl-derivative in tissue sample, analysis a / N-acyl-derivative in tissue sample, analysis b / N-acyl-derivative in tissue sample, mean: unit not given here
Conditions: 5 days
Description: The study protocol was approved by the Institutional Animal Care and Use Committee, Richard B. Russell Agricultural Research Center, Athens, GA. Male Sprague–Dawley rats (Harlan Industries, Indianapolis, IN, USA), 7 weeks of age at receipt, were individually housed in stainless steel, wire mesh cages in an environmentally controlled room having a 12-h light/dark cycle. Food (2019 Global Rodent Diet, Teklad, Madison, WI, USA) and fresh tap water were provided ad libitum. After a 1 week acclimation period, the animals were randomly assigned to five groups (n = 2/group) having mean weights of 215 to 216 g (weight range of all animals, 211 to 220 g). For five consecutive days, they were observed, weighed, and given an intraperitoneal injection (ip) of 0 (vehicle), 0.5, 1.0, or 2.0 mg/kg body weight FB1 (provided by R. Eppley, US FDA), 1.0 mg/kg body weight HFB1 (positive control) (Voss et al. [2009]), or vehicle (0.9 % physiological saline). These doses corresponded to 0.69, 1.38, and 2.77 μmol FB1/kg body weight and 2.47 μmol/kg body weight HFB1 per day. In order to compare the effects of FB1 and HFB1, dosages will be expressed as molar concentrations and, on this basis, the high dose of FB1 is roughly equivalent to that of the positive control dose of HFB1. Dosing solutions were sterile filtered and administered at a volume rate of 10 ml/kg body weight. The animals were fasted overnight prior to administration of the final dose. The rats were euthanized (CO2 inhalation and exsanguination) 60 to 90 min following the final dose administration and examined by necropsy. The kidney and liver specimens were fixed in 10 % neutral buffered formalin, processed, and microscopically evaluated without knowledge of the animal’s identity or treatment group. Three representative liver and kidney specimens (100 mg each) were also collected, immediately frozen, and stored (−80 °C) until processed, at which time the tissues were thawed and homogenized in distilled/deionized water (1 ml water/100 mg tissue). The homogenates were lyophilized before they were shipped by overnight courier for the analysis of fumonisin metabolites and sphingolipids.
Lyophilized liver and kidney tissues (100 mg wet weight equivalents) were processed for the quantification of FB1, HFB1, NAFB1, NAHFB1, and sphingolipids. Preparation of the tissue samples was performed according to a previously published method (Harrer et al. [2013]). For the quantification of FB1 and HFB1, a d6-labeled derivative of FB1 (FB1-d6) was used as the internal standard. Synthetic derivatives with a heptadecanoic fatty acid (C17:0) residue were used as internal standards for the quantification of N-acyl-fumonisins and ceramides (N-C17:0-FB1, N-C17:0-HFB1, and N-C17:0-ceramide). The sphingoid bases and their phosphate derivatives were quantified using synthetic derivatives with a C17-acyl-backbone: sphingosine (C17:1), sphingosine-1-phosphate (C17:1), sphinganine (C17:0), sphinganine-1-phosphate (C17:0) as internal standards. The standards were dissolved in methanol:chloroform (2:1, v/v) and then mixed with the tissue samples. The samples spiked with internal standard were kept at room temperature for 30 min before being processed further. The internal standard-spiked samples were first extracted with ethyl acetate, isopropanol, and water (60:30:10, v/v/v) and a second time using methanol, chloroform, and water (60:30:10, v/v/v). The extracts were combined, the solvents removed by evaporation, and the dried samples stored at−80 °C till analyzed.
For the analysis, the samples were reconstituted in a mixture of water, methanol, and tetrahydrofurane (60:24:16, v/v/v). The NAFB1 and NAHFB1 derivatives having the following fatty acyl chain lengths were quantified by HPLC-MS/MS: C16:0, C18:0, C20:0, C22:0, C24:0, C26:0. Furthermore, we also quantified the unsaturated derivatives C24:1 and C26:1. The results are given as the sum of all N-acyl derivatives of FB1 or HFB1. […]

[1] = Kidney, treatment FB1 0,5 mg/kg BW ip
[2] = Kidney, treatment FB1 1 mg/kg BW ip
[3] = Kidney, treatment FB1 2 mg/kg BW ip
[4] = Kidney, treatment HFB1 1 mg/kg BW ip
[5] = Liver, treatment FB1 0,5 mg/kg BW ip
[6] = Liver, treatment FB1 1 mg/kg BW ip
[7] = Liver, treatment FB1 2 mg/kg BW ip
[8] = Liver, treatment HFB1 1 mg/kg BW ip

Compound	N-acyl-derivative in tissue sample, analysis a [2]	N-acyl-derivative in tissue sample, analysis b [2]	N-acyl-derivative in tissue sample, mean [2]	N-acyl-derivative in tissue sample, analysis a [3]	N-acyl-derivative in tissue sample, analysis b [3]	N-acyl-derivative in tissue sample, mean [3]	N-acyl-derivative in tissue sample, analysis a [4]	N-acyl-derivative in tissue sample, analysis b [4]	N-acyl-derivative in tissue sample, mean [4]	N-acyl-derivative in tissue sample, analysis a [5]	N-acyl-derivative in tissue sample, analysis b [5]	N-acyl-derivative in tissue sample, mean [5]	N-acyl-derivative in tissue sample, analysis a [6]	N-acyl-derivative in tissue sample, analysis b [6]	N-acyl-derivative in tissue sample, mean [6]	N-acyl-derivative in tissue sample, analysis a [7]	N-acyl-derivative in tissue sample, analysis b [7]	N-acyl-derivative in tissue sample, mean [7]	N-acyl-derivative in tissue sample, analysis a [8]	N-acyl-derivative in tissue sample, analysis b [8]	other results
CCCCCCCCCCCCCCCC(=O)NC(C)C(O)CC(O)CCCCC(O)CC(C)CC(OC(=O)CC(CC(=O)O)C(=O)O)C(OC(=O)CC(CC(=O)O)C(=O)O)C(C)CCCC (stereo not drawn) [FB1C16:0]	14,4	12,6	13,5	12,1	13,8	13,0	0,0	0,0	0,0	6,8	5,1	6,0	3,9	6,4	5,2	8,4	5,9	7,1	0,0	0,0	N-acyl-derivative in tissue sample, analysis a [1]: 7,4; N-acyl-derivative in tissue sample, analysis b [1]: 9,1; N-acyl-derivative in tissue sample, mean [1]: 8,2; N-acyl-derivative in tissue sample, mean [8]: 0,0
CCCCCCCCCCCCCCCCCC(=O)N[C@@H](C)[C@@H](O)C[C@H](O)CCCC[C@@H](O)C[C@H](C)C[C@H](O)[C@H](O)[C@H](C)CCCC [HFB1C18:0]	0,1	0,0	0,1	0,0	0,1	0,1	2,6	1,8	2,2	0,3	0,1	0,2	0,0	0,0	0,0	0,0	0,0	0,0	1,5	2,0	N-acyl-derivative in tissue sample, analysis a [1]: 0,1; N-acyl-derivative in tissue sample, analysis b [1]: 0,2; N-acyl-derivative in tissue sample, mean [1]: 0,2; N-acyl-derivative in tissue sample, mean [8]: 1,8
CCCCCCCCCCCCCCCCCCCCCCCC(=O)NC(C)C(O)CC(O)CCCCC(O)CC(C)CC(OC(=O)CC(CC(=O)O)C(=O)O)C(OC(=O)CC(CC(=O)O)C(=O)O)C(C)CCCC (stereo not drawn) [FB1C24:0]	3,0	2,4	2,7	5,0	4,4	4,7	0,0	0,0	0,0	11,7	12,3	12,0	2,1	7,3	4,7	9,0	17,6	13,3	0,0	0,0	N-acyl-derivative in tissue sample, mean [8]: 0,0
CCCCCCCCCCCCCCCCCCCCCC(=O)NC(C)C(O)CC(O)CCCCC(O)CC(C)CC(OC(=O)CC(CC(=O)O)C(=O)O)C(OC(=O)CC(CC(=O)O)C(=O)O)C(C)CCCC (stereo not drawn) [FB1C22:0]	0,9	0,6	0,7	0,9	1,4	1,2	0,0	0,0	0,0	2,9	6,4	4,7	1,2	4,0	2,6	2,9	4,6	3,8	0,0	0,0	N-acyl-derivative in tissue sample, analysis a [1]: 0,7; N-acyl-derivative in tissue sample, analysis b [1]: 0,7; N-acyl-derivative in tissue sample, mean [1]: 0,7; N-acyl-derivative in tissue sample, mean [8]: 0,0
